Experiments:
[1] = target: T1, hER (recombinant human estrogen receptor) (Homo sapiens, UniProt P03372); assay: Relative bond affinity (RBA) on recombinant human estrogen receptor, displacement of tritiated estradiol; type: binding; conditions: for RBA hER: Estradiol = 100, 0° C., 24 hours; for affinity for the estrogen receptor (in words): conclusion in words
T1 construct: made in house; host or cells: SF9 insect cells, recombinant baculovirus
T1 sequence (P03372 1-595): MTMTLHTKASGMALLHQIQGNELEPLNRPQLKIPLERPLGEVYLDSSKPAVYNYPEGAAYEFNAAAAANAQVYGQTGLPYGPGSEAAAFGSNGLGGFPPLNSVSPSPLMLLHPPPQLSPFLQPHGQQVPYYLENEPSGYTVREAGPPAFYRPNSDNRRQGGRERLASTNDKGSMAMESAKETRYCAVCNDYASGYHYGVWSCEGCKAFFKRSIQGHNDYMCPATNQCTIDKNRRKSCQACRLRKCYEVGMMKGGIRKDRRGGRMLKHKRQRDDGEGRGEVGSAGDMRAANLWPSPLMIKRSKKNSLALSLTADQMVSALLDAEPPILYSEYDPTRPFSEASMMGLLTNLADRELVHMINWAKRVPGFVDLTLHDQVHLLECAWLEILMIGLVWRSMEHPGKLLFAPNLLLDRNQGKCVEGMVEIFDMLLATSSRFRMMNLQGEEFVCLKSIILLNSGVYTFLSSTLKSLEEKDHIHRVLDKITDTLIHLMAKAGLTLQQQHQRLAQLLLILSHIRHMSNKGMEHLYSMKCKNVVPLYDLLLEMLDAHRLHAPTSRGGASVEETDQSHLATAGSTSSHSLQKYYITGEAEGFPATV
Excerpt: (§1) 1--Activity on the hormonal receptors using either the natural hormonal receptor of a rat (AR), or the recombinant human receptor (PR, GR and ER).
A supernatant of SF9 cells containing the recombinant human estrogen receptor was obtained by the process described above for the progesterone receptor using the cDNA fragment described in the HEGO expression vector by TORA et al. (EMBO Journal (1989), Vol. 8 N° 7, pp. 1981-1986), containing the region coding for the human estrogen receptor of "wild type" with a glycine in position 400. The cells were lysed in the lysis buffer (1). The supernatant was incubated at 0° C. for 24 hours with a constant concentration (T) of tritiated estradiol in the presence of increasing concentrations either of unlabelled estradiol (0-1000×10^-9 M), or of the unlabelled product under test (1 to 25000×10^-9 M). The concentration of bound tritiated estradiol (B) was then measured in each incubate by the technique of adsorption with carbon dextran.
(§2) Calculation of the relative bond affinity (RBA).
(§3) The following 2 curves were traced: percentage of bound tritiated hormone B/BO as a function of the logarithm of the concentration of unlabelled reference hormone or as a function of the logarithm of the concentration of the unlabelled product under test.
(§4) The straight line of the following equation was determined:
(§5) BO=Concentration of bound tritiated hormone in the absence of any unlabelled product,
(§6) B=Concentration of bound tritiated hormone in the presence of a concentration X of unlabelled product,
(§7) B min=Concentration of bound tritiated hormone in the presence of a large excess of cold reference hormone (500 nM). The intersections of the straight line I50 and the curves allowed the evaluation of the concentrations of unlabelled reference hormone (CH) and of the unlabelled product under test (CX) which inhibited by 50% the specific binding of the tritiated hormone on the receptor.
The relative bond affinity (RBA) of the product under test was determined by the equation:
The RBA's of the reference products estradiol, progesterone, dexamethasone and testosterone were arbitrarily taken to be equal to 100.

[2] = target: T2, AR (androgen receptor of the prostate of a rat) (Rattus norvegicus, UniProt P15207); assay: Relative bond affinity (RBA) on androgen receptor of the prostate of a rat, displacement of tritiated testosterone; type: binding; conditions: Testosterone = 100; 0° C., 24 hours
T2 construct: using either the natural hormonal receptor of a rat (AR); from tissue; host or cells: prostate of castrated male Sprague Dawley rats, high-speed supernatant
T2 sequence (P15207 1-902): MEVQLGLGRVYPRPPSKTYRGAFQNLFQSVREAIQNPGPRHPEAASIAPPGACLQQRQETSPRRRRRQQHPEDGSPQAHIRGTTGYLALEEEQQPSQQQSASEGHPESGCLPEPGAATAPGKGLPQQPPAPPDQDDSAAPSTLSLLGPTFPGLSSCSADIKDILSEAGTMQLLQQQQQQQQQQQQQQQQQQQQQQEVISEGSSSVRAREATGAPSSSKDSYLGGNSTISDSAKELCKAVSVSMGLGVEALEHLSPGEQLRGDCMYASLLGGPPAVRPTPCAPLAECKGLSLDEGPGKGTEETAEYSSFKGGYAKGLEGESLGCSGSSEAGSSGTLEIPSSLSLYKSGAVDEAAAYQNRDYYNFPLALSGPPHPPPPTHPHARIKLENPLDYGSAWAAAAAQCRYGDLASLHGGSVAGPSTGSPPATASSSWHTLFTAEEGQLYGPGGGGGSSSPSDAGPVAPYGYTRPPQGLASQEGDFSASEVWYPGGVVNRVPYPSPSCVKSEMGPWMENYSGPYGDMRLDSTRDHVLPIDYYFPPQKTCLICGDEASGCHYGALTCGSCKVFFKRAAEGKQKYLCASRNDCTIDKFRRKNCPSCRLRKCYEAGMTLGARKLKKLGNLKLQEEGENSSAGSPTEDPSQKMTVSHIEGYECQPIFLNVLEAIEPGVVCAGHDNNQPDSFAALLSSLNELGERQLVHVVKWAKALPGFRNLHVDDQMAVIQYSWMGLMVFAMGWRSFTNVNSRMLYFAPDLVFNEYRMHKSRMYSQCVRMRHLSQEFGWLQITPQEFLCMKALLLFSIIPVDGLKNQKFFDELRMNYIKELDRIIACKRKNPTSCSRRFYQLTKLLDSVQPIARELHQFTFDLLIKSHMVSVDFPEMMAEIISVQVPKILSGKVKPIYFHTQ
Description: as §1
Androgen receptor of the prostate of a rat
Male Sprague Dawley EOPS rats weighing 180 to 200 g were castrated and 24 hours after the castration, the animals were sacrificed. The prostates were removed, weighed and homogenized at 0° C. using a Potter teflon-glass in a TS buffered solution (10 mM Tris, 0.25 M saccharose, 2 mMDTT, 20 mM MoNa, 0.1 mM PMSF, pH 7.4) (1 g of tissue per 8 ml of TS). The homogenate was centrifuged (209,000 g for 30 minutes) at 0° C. Aliquots of the supernatant were incubated at 0° C. for 24 hours with a constant concentration (T) of tritiated testosterone in the presence of increasing concentrations, either of unlabelled testosterone (0 to 1000×10^-9 M), or of the product under test (1 to 25000×10^-9 M). The concentration of bound tritiated testosterone (B) was measured in each incubate by the technique of adsorption with carbon dextran.
as §2, §3, §4, §5, §6, §7
The relative bond affinity (RBA) of the product under test was determined by the equation: […]

| SMILES | RBA hER [1] | affinity for the estrogen receptor (in words) [1] | RBA AR [2] |
| --- | --- | --- | --- |
| CCCCNS(=O)(=O)CCCCCOc1ccc([C@H]2C[C@]3(C)[C@@H](O)CC[C@H]3[C@@H]3CCc4cc(O)ccc4[C@H]32)cc1 [Example 2, N-butyl-5-[4-(Δ1,3,5(10)-estratrien-3,17β-diol-11β-yl)phenoxy]-pentanesulfonamide] | 21 | marked affinity | 3 |
| CCCCN(C)S(=O)(=O)CCCCCOc1ccc([C@H]2C[C@]3(C)[C@@H](O)CC[C@H]3[C@@H]3CCc4cc(O)ccc4[C@H]32)cc1 [Example 7, N-butyl-5-[4-(Δ1,3,5(10)-estratrien-3,17β-diol-11β-yl)phenoxy]-N-methyl-pentanesulfonamide] | 4 |  | 2.5 |
| CN(CC(F)(F)C(F)(F)C(F)(F)F)S(=O)(=O)CCCCCOc1ccc([C@H]2C[C@]3(C)[C@@H](O)CC[C@H]3[C@@H]3CCc4cc(O)ccc4[C@H]32)cc1 [Example 8, 5-[4-(Δ1,3,5(10)-estratrien-3,17β-diol-11βyl)-Phenoxy]-N-(2,2,3,3,4,4,4-heptafluorobutyl)-N-methyl-pentanesulfonamide] | 19 | marked affinity | 1.5 |

Source: patent US5494907A, “11-β substituted-19-nor steroids” (Roussel UCLAF, priority 1993, dated 1996)
